Like-named read-outs stand apart in the source and are kept apart here.
Assays:
[1] = system: WI-38 cells (AID negative); assay: Primary screening cell killing assay repeated in WI-38 cells (AID negative); assay type: cell-based; details: Homo sapiens, 168 h, cell death on Day 7, Cell-Titer Glo
Experimental: (§1) Primary screening was a phenotypic screen that utilized the synthetic lethal interaction between AID and RAD51 to identify compounds that were both potent and on target. AID expressing cells are dependent upon RAD51 for survival; inhibiting RAD51 in AID positive cells results in a cytotoxic effect.
Percent cell death and EC50 values were calculated by comparing the cell viability of the compound treated wells to the non-treated wells. Normalized RLU values were obtained by subtracting the media well values from each of the wells in the same column, and then dividing that value by the DMSO treated cells values. The percent kill was then calculated by subtracting the normalized RLU value from 1 and multiplying by 100. The average normalized percent kill value and standard error of the mean was then calculated. The kill values were then inputted into Prism with the corresponding standard errors. In Prism a non-linear regression line was plotted with the data points using a semi-log scale, and the EC50 value was calculated.

[2] = system: Daudi cell line (AID positive); assay: Primary screening cell killing assay, Daudi cell line (AID positive); assay type: cell-based; details: Homo sapiens, 168 h, cell death on Day 7, Cell-Titer Glo
Experimental: as §1
The first step was to set up a cell killing assay in the Daudi cell line (AID positive). A 96 well u-bottom plate was prepared by writing the experiment number, plate number, date and initials in the top right corner of the plate lid. With a sterile 300 ml reservoir, and 25 ml serological pipette, evaporation buffer media was pipetted into reservoir in 25 ml increments. Using the liquid handler, 150 ul of evaporation buffer media was pipetted from reservoir into rows A and H, and Columns 1 and 12 of the 96 well u-bottom plate. Cell cultures were counted to obtain the density of cells per ml, and the culture viability. The cell density information was used to obtain 1,000,000 cells from culture using a 5 mL serological pipette into an epi tube. The cell density information from the culture was used to calculate the number of cells and volume of media needed for the assay to seed 1250 cells in 130 ul of media per available culture well in the 96 well u-bottom plate. Rows B through F were used for cells (50 wells in total), with row G left for an empty media control. The calculation was overestimated by 10 mL to account for the dead volume in the 300 ml reservoir. Once the media volume was calculated, the appropriate volume of media was pipetted in 25 mL increments into the 250 mL bottle using a 25 mL serological pipette. The 250 ml bottle was capped tightly, and placed into a 37° C. water bath for 2 minutes. While the culture media was warming, 10 mL of fresh media was pipetted from the 500 mL culture media bottle into a sterile 25 mL reservoir. Using the Eppendorf multichannel pipette, 130 ul of media was pipetted from the 25 mL reservoir into row G of the 96 well u-bottom plate. Once the 250 mL bottle of media was warmed, the volume of culture needed was pipetted into the bottle, and mixed gently with a 25 mL serological pipette as to not create bubbles, and then the contents of the bottle were pipetted into a new 300 mL reservoir. Using the liquid handler, 130 ul of culture was pipetted from the 300 mL reservoir into rows B through F of the 96 well u-bottom plate. Once the culture was added, the plate was placed into a 37° C. incubator until the compound master plate was prepared for use.
Two 96 well u-bottom plates were prepared by writing the master plate name in the upper right corner of the plate lid. Labeling one DMSO master and the other Media Master. The compounds of interest were obtained from the laboratory freezer, and placed into a 25 well storage box with a lid, and set the box aside. The compounds were vortexed after thawing but before use. Using an automatic multichannel pipette, 20 ul of 100% DMSO was pipetted into wells B3-B11 through G3-G11 of the DMSO master plate. For each compound on the master plate, 50 ul of the compound were pipetted in the appropriate well of row 2 (reference plate map to determine appropriate well). A serial dilution was prepared beginning by aspirating 20 ul from row 2 and mixing with row 3, repeating until row 11 was reached. Using the liquid handler, 194 ul of Daudi media was dispensed into wells B2-B11 through G2-G11 of the Media master plate. Using the liquid handler, 6 ul from the DMSO master plate was aspirated and dispensed into the media master plate, mixing 100 ul twice.
Compounds from master plate were then added to the culture plate. The culture plates were removed from the incubator, and set inside the biosafety cabinet. Using a liquid handler, 20 ul from wells B2 to B11 through G2 to G11 of master plate were aspirated, and dispensed into wells B2 to B11 through G2 to G11 of culture plate. This set was continued with each culture plate. […]

[3] = Bi-directional Caco-2 permeability; assay type: in vitro ADME; details: human
Experimental: Bi-directional Caco-2 permeability was assayed. Caco-2 cells were seeded onto permeable polycarbonate supports and allowed to differentiate for about 3 weeks prior to being used in the assays. The cells were then exposed to the compounds from either the apical or basolateral sides and incubated at 37 C for up to 90 minutes under light agitation. Compound transport was then measured using LC/MS/MS analysis at 30, 60, and 90 minutes.

SMILES	EC50 [1] [nM]	EC50 [2] [nM]	further results
CC(C)NC(=O)OC1CCN(c2ncc(-c3ccc(NC(=O)NCc4ccccc4)cc3S(=O)(=O)NC(C)(C)C)s2)CC1 [Ex. 3, [1-[5-[4-(benzylcarbamoylamino)-2-(tert-butylsulfamoyl)phenyl]thiazol-2-yl]-4-piperidyl] N-isopropylcarbamate]	> 1000	≤ 100	
CC(C)OC(=O)N1CCC(c2ncc(-c3ccc(NC(=O)NCc4ccccn4)cc3S(=O)(=O)NC(C)(C)C)s2)CC1 [Ex. 4, isopropyl 4-[5-[2-(tert-butylsulfamoyl)-4-(2-pyridylmethylcarbamoylamino)phenyl]thiazol-2-yl]piperidine-1-carboxylate]	> 1000	> 1000	
CC(C)OC(=O)NC12CCC(c3ncc(-c4ccc(NC(=O)N[C@@H](C)c5ccccc5)cc4S(=O)(=O)NC(C)(C)C)s3)(CC1)CC2 [Ex. 13, isopropyl (S)-(4-(5-(2-(N-(tert-butyl)sulfamoyl)-4-(3-(1-phenylethyl)ureido)phenyl)thiazol-2-yl)bicyclo[2.2.2]octan-1-yl)carbamate]	> 1000	≤ 100	
CC(C)OC(=O)NC12CCC(c3ncc(-c4ccc(NC(=O)N[C@H](C)c5ccccc5)cc4S(=O)(=O)NC(C)(C)C)s3)(CC1)CC2 [Ex. 14, isopropyl (R)-(4-(5-(2-(N-(tert-butyl)sulfamoyl)-4-(3-(1-phenylethyl)ureido)phenyl)thiazol-2-yl)bicyclo[2.2.2]octan-1-yl)carbamate]	> 1000	≤ 100	
CC(C)OC(=O)NC12CCC(c3ncc(-c4ccc(NC(=O)N[C@@H](C)c5ccccn5)cc4S(=O)(=O)NC(C)(C)C)s3)(CC1)CC2 [Ex. 15, isopropyl (S)-(4-(5-(2-(N-(tert-butyl)sulfamoyl)-4-(3-(1-(pyridin-2-yl)ethyl)ureido)phenyl)thiazol-2-yl)bicyclo[2.2.2]octan-1-yl)carbamate]	> 1000	≤ 100	
CC(C)OC(=O)NC12CCC(c3ncc(-c4ccc(NC(=O)N[C@H](C)c5ccccn5)cc4S(=O)(=O)NC(C)(C)C)s3)(CC1)CC2 [Ex. 16, isopropyl (R)-(4-(5-(2-(N-(tert-butyl)sulfamoyl)-4-(3-(1-(pyridin-2-yl)ethyl)ureido)phenyl)thiazol-2-yl)bicyclo[2.2.2]octan-1-yl)carbamate]	> 1000	≤ 100	
CC(C)OC(=O)NC12CCC(c3ncc(-c4ccc(NC(=O)NCc5ccccc5)cc4S(=O)(=O)NC(C)(C)C)s3)(CC1)CC2 [Ex. 18, isopropyl (4-(5-(4-(3-benzylureido)-2-(N-(tert-butyl)sulfamoyl)phenyl)thiazol-2-yl)bicyclo[2.2.2]octan-1-yl)carbamate]	> 1000	≤ 100	
CC(C)OC(=O)NC12CCC(c3ncc(-c4ccc(NC(=O)NCc5ccccn5)cc4S(=O)(=O)NC(C)(C)C)s3)(CC1)CC2 [Ex. 19, isopropyl (4-(5-(2-(N-(tert-butyl)sulfamoyl)-4-(3-(pyridin-2-ylmethyl)ureido)phenyl)thiazol-2-yl)bicyclo[2.2.2]octan-1-yl)carbamate]	> 1000	≤ 100	
CC(C)OC(=O)N[C@H]1CC[C@H](c2ncc(-c3ccc(NC(=O)N[C@H](C)c4ccccc4)cc3S(=O)(=O)NC(C)(C)C)s2)CC1 [Ex. 24]	> 1000	≤ 100	
CC(C)OC(=O)N[C@H]1CC[C@H](c2ncc(-c3ccc(NC(=O)N[C@@H](C)c4ccccc4)cc3S(=O)(=O)NC(C)(C)C)s2)CC1 [Ex. 26, isopropyl ((1S,4r)-4-(5-(2-(N-(tert-butyl)sulfamoyl)-4-(3-((S)-1-phenylethyl)ureido)phenyl)thiazol-2-yl)cyclohexyl)carbamate]	> 1000	≤ 100	
CC(C)OC(=O)N[C@H]1CC[C@H](c2ncc(-c3ccc(NC(=O)N[C@@H](C)c4ccccn4)cc3S(=O)(=O)NC(C)(C)C)s2)CC1 [Ex. 32, isopropyl ((1S,4r)-4-(5-(2-(N-(tert-butyl)sulfamoyl)-4-(3-((S)-1-(pyridin-2-yl)ethyl)ureido)phenyl)thiazol-2-yl)cyclohexyl)carbamate]	> 1000	≤ 100	
CC(C)OC(=O)NC1CCC(c2ncc(-c3ccc(NC(=O)OCc4ccccc4)cc3S(=O)(=O)NC(C)(C)C)s2)CC1 (stereo not shown) [Ex. 39, benzyl (3-(N-(tert-butyl)sulfamoyl)-4-(2-((1r,4r)-4-((isopropoxycarbonyl)amino)cyclohexyl)thiazol-5-yl)phenyl)carbamate]	> 1000	≤ 100	
CC(C)OC(=O)NC1CCC(c2ncc(-c3ccc(NC(=O)OCc4ccccc4F)cc3S(=O)(=O)NC(C)(C)C)s2)CC1 (stereo not shown) [Ex. 40, 2-fluorobenzyl (3-(N-(tert-butyl)sulfamoyl)-4-(2-((1r,4r)-4-((isopropoxycarbonyl)amino)cyclohexyl)thiazol-5-yl)phenyl)carbamate]	> 1000	≤ 100	
CC(C)OC(=O)NC1CCC(c2ncc(-c3ccc(NC(=O)O[C@@H](C)c4ccccc4)cc3S(=O)(=O)NC(C)(C)C)s2)CC1 (stereo partly drawn) [Ex. 41, (S)-1-phenylethyl (3-(N-(tert-butyl)sulfamoyl)-4-(2-((1r,4S)-4-((isopropoxycarbonyl)amino)cyclohexyl)thiazol-5-yl)phenyl)carbamate]	> 1000	≤ 100	
CC(C)OC(=O)NC1CCC(c2ncc(-c3ccc(NC(=O)OCc4ccccn4)cc3S(=O)(=O)NC(C)(C)C)s2)CC1 (stereo not shown) [Ex. 42, pyridin-2-ylmethyl (3-(N-(tert-butyl)sulfamoyl)-4-(2-((1r,4r)-4-((isopropoxycarbonyl)amino)cyclohexyl)thiazol-5-yl)phenyl)carbamate]	> 1000	≤ 100	
CC(C)OC(=O)NC1CCC(c2ncc(-c3ccc(NC(=O)O[C@H](C)c4ccccc4)cc3S(=O)(=O)NC(C)(C)C)s2)CC1 (stereo partly drawn) [Ex. 43, (R)-1-phenylethyl (3-(N-(tert-butyl)sulfamoyl)-4-(2-((1r,4R)-4-((isopropoxycarbonyl)amino)cyclohexyl)thiazol-5-yl)phenyl)carbamate]	> 1000	100 to 1000	
CC(C)(C)NS(=O)(=O)c1cc(NC(=O)NCc2ccccn2)ccc1-c1cnc(C2CCC(NC(=O)OC(C)(C)C)CC2)s1 (stereo not shown) [Ex. 45, tert-butyl ((1r,4r)-4-(5-(2-(N-(tert-butyl)sulfamoyl)-4-(3-(pyridin-2-ylmethyl)ureido)phenyl)thiazol-2-yl)cyclohexyl)carbamate]		≤ 100	recovery at 90 min ([3]; Caco-2, Caco-2, AB direction, read-out: AB Recovery %): 73.6%; recovery at 90 min ([3]; Caco-2, Caco-2, BA direction, read-out: BA Recovery %): 84.4%; efflux ratio at 90 min ([3]; Caco-2, read-out: BA/AB Ratio): 1.4; Papp A→B at 90 min ([3]; Caco-2, apical to basolateral, 37 C, up to 90 minutes, read-out: AB Papp (cm/sec × 10^6)): 7.6 ×10⁻⁶ cm/s; Papp B→A at 90 min ([3]; Caco-2, basolateral to apical, 37 C, up to 90 minutes, read-out: BA Papp (cm/sec × 10^6)): 10.8 ×10⁻⁶ cm/s
CC(C)OC(=O)Nc1ccc(-c2cnc(N3CC(NC(=O)OC(C)C)C3)s2)c(S(=O)(=O)NC(C)(C)C)c1 [Ex. 46, isopropyl N-[3-(tert-butylsulfamoyl)-4-[2-[3-(isopropoxycarbonylamino)azetidin-1-yl]thiazol-5-yl]phenyl]carbamate]	> 1000	> 1000	

From US10336746B1, “RAD51 inhibitors” (Cyteir Therapeutics, Inc., priority 2017, dated 2019)
